# Experimental data published in patent US20250263370A1 (Tay Therapeutics Limited, priority 2022, published 2025).
# Where “and” joins values, the source holds several entries; their conditions need not be identical. Identical values can stand only once. Like-named read-outs stand apart in the source and are kept apart here.
# Assay: Plasma concentration of Example 101 in UUO rats by LC-MS/MS
# Assay type: in vivo, rat
# Conditions: for concentration at 4 h: rat, plasma, po, 30 mg/kg
# Excerpt: Serum for blood biochemistry analysis was collected into centrifuge tubes without coagulant four hours after final dosing. Blood plasma samples from group 3 was collected into tubes with K2EDTA four hours after final dosing. At the conclusion of the study (end of the 14-day period), animals were euthanized. Kidney tissue was collected four hours after final dosing. Ligated side kidney was divided into three copies ⅓ fix into 10% formalin for H&E analysis, ⅓ into RNA for PCR analysis of tissue biomarkers Col1a1, TGF-b1, MCP-1, IL-1b, IL-6, IL-17, TNF-a, and Timp1, and ⅓ for hydroxyproline assay analyzed by ELISA. RNA was extracted from tissue using the RNeasy mini kit (Qiagen). RNA concentration was measured using a NanoDrop One Spectrophotometer (ThermoFisher) and converted to cDNA using a High-Capacity RNA-to-cDNA kit (Invitrogen). RT-PCR was performed to measure levels of mRNA of different targets using TaqMan® Gene Expression Master Mix and TaqMan® probe/primer sets on a QuantStudio 6, Real-Time PCR System (ThermoFisher). Fold change in target gene expression was determined using the ΔΔCt method.
# Samples were analyzed on a Raptor Biphenyl 2.7 μm 50×2.1 mm column. Solution A in the mobile phase was 95% water (0.1% formic acid) and solution B was 95% acetonitrile in water (0.1% formic acid), injection volume was 20 μL, and flow rate was 0.5 mL/min.
# To prepare samples for analysis, serial concentrations were prepared by diluting the stock solution of analyte with a 50% acetonitrile in water solution. 5 μL working solutions (5, 10, 20, 50, 100, 500, 1000, 5000, and 10000 ng/mL) were added to 50 μL of the blank SD rat plasma to achieve calibration standards of −0.5 to 1000 ng/mL (0.5, 1, 2, 5, 10, 50, 100, 500, and 1000 ng/mL) in a total volume of 55 μL. […]
# 55 μL of standards, 55 μL of QC samples and 55 μL of unknown samples (50 μL of unknown rat plasma with 5 μL of blank solution) were added to 200 μL of acetonitrile containing IS mixture for precipitating protein respectively. […] 20 μL of diluted supernatant was injected into the LC/MS/MS system for quantitative analysis.
structure (smiles),measurement,setting,value
"CNC(=O)c1[nH]c(C(=O)NC2CCC2)cc1O[C@@H](C)c1ccccc1 (stereo in doubt) [Example 101, N^5-cyclobutyl-N^2-methyl-3-(1-phenylethoxy)-1H-pyrrole-2,5-dicarboxamide]",Plasma concentration of Example 101,"male SD rats, oral, 4 h after final treatment, individual test subjects",485 ng/mL and 959 ng/mL and 760 ng/mL and 859 ng/mL and 906 ng/mL and 1160 ng/mL and 665 ng/mL and 941 ng/mL
same,concentration at 4 h,"male, SD, Mean plasma concentration of Example 101, male SD rats, oral, 4 h after final treatment, mean of 8 subjects",846 ng/mL
same,concentration at 4 h,"UUO rats, 30 mg/kg oral, four hours after final treatment, read-out: mean plasma concentration",846 ng/mL
